# Like-named read-outs stand apart in the source and are kept apart here.
# Tests used:
# [1] = tested on: zfGPCR (dual zfGLP-1R/GCGR); experiment: Competitive binding, displacement of 125I-exendin(9–39) from recombinant zfGPCR expressed in COS-7 cells; design: species or system zebrafish (Danio rerio); conditions: 125I-exendin(9–39) tracer, intact COS-7 cells, 16–18 h at 4°C, triplicate wells, NSB with 1 μM peptide, n = 4 zfGLP-1, n = 3 hGLP-1, zf glucagon, exendin-4, n = 5 exendin(9–39). 95% CI: zfGLP-1 225–371, hGLP-1 121–262, zf glucagon 78.5–144, h glucagon 33.6–134, exendin-4 0.84–1.17, exendin(9–39) 3.42–5.17
# Method: (§1) Competitive binding experiments were performed with the recombinant zfGPCR expressed in COS-7 cells, as described previously. Transient transfections of pcDNA3 vector containing recombinant zfGPCR into COS-7 cells were performed as described below for the stimulation of intracellular cAMP. Cells were grown in 100-mm plates to confluence and 24 hr after transfection they were trypsinized and transferred to 24 well plates (Biocore, Becton Dickinson). 24–48 hr later each peptide (pM to μM) was added in triplicate wells followed by the addition of an aliquot (100,000 cpm/well) of either ^125I-hGLP-1(7–36)amide or ^125I-exendin(9–39) (each radioactive peptide tracer at […] receptor grade, NEN Life Science Products, Boston, MA). Peptides, radioiodinated ^125I-tracer and cells were incubated for 16–18 h at 4°C. After incubation cells were washed twice with ice-cold PBS, lysed with 1N NaOH and radioactivity measured in a γ-counter. A single dose-displacement curve for each peptide was obtained in a single 24-well plate.
# Non-specific binding was determined in the presence of 1μM of each peptide.
# (§2) IC50 values represent an average of n experiments as described above and were calculated by the Prism 4 software. Displacement curves from the competitive binding experiments were plotted by Origin 9 software (OriginLab). Error bars are shown for data points in the displacement curves obtained in two or more rounds of transfections.
# (§3) Results from the functional experiments with recombinant zfGPCR transiently expressed in COS-7 cells were analyzed by the Prism 4 software using a four-parameter logistic sigmoidal curve fit model. Data points represent mean +/- SEM.
# They are shown together with the 95% confidence intervals (CIs). The F-test was used to compare the IC50 value for zfGLP-1 with the IC50 values for the other tested peptides obtained in the competitive binding experiments shown when ^125I-hGLP-1(7–36)amide or ^125I-exendin (9–39) were used as tracers. Following conditions were used for the curve fitting: (i) in the normalization step y = 0%was set to be 0, y = 100% was set to be 100; (ii) constrained curve-fit parameters were set to be equal to 0.00 on the bottom, 100 on top; (iii) IC50 was not constrained; (iv) the selected option in the non-linear regression curve fit was intended on finding out whether the best-fit of a selected parameter (IC50) differs between two sets.
# [2] = tested on: zfGPCR (dual zfGLP-1R/GCGR); experiment: Competitive binding, displacement of 125I-hGLP-1(7–36)amide from recombinant zfGPCR expressed in COS-7 cells; design: species or system zebrafish (Danio rerio); conditions: 125I-hGLP-1(7–36)amide tracer, intact COS-7 cells, 16–18 h at 4°C, triplicate wells; NSB with 1 μM peptide; n = 3 hGLP-1, n = 2 zf glucagon, exendin-4, exendin(9–39), n = 1 zfGLP-1. 95% CI: zfGLP-1 1.2–3.6; hGLP-1 0.98–13; zf glucagon 1.4–4.0; exendin-4 0.24–0.92; exendin(9–39) 2.4–14
# Method: as §1
# Dose-response curves for zfGLP-1, zfGLP-2 and zebrafish PACAP-38 were obtained from one transfection. […] Lower rounds of transfections were performed in experiments that replicated our published results from the competitive binding experiments with the displacement of ^125I-hGLP-1(7–36)amide binding to zfGPCR [41] and thus represented positive controls for these studies.
# as §2, §3
# They are shown together with the 95% confidence intervals (CIs). […]
# [3] = tested on: zfGPCR (dual zfGLP-1R/GCGR); conditions: cited from earlier work
# Method: Furthermore, exendin-4, an agonist of hGLP-1R, displaced in competitive binding experiments the binding of ^125I-hGLP-1(7–36) amide to the zebrafish receptor with an IC50 of 0.9 nM, which is within a similar concentration range as the one determined in competitive binding experiments with recombinant hGLP-1R [41] and rGLP-1R [23]. However, subsequent phylo ...
substance,measurement,setting,value
exendin-4: peptide exclusively found in the saliva of a lizard; agonist of GLP-1R; purchased from Bachem,IC50,[1],1000 pM
same,IC50,[2],480 pM
same,IC50 (in words),"[3]; competitive binding, recombinant zfGPCR, similar to rGLP-1R and hGLP-1R",in the low nM range
same,IC50,"[3]; displacement of 125I-hGLP-1(7–36)amide, read-out: IC50 in competitive binding (earlier characterization of the zfGPCR)",900 pM

# Source: PMC5145181, “Structural Mapping and Functional Characterization of Zebrafish Class B G-Protein Coupled Receptor (GPCR) with Dual Ligand Selectivity towards GLP-1 and Glucagon” (PLoS ONE, 2016)
